Source: US20160205934A1 (Rohm and Haas Company, priority 2013, published 2016)
Like-named read-outs stand apart in the source and are kept apart here.

What was measured:
Chlorella sp. ATCC 7516 = assay: Algal efficacy testing of dry paint films (modified ASTM 5589, 6-well plates); assay type: cell-based; settings: 4 weeks; for inhibition at 1000 ppm: total conc 1000 ppm; for Total conc: total biocide conc in paint chosen as minimum inhibitory concentration (pass level 75% inhibition), or maximum tested where pass not reached
Procedure: (§1) The at least one phenylurea herbicide, (diuron, chlorotoluron, and/or isoproturon) was post added, as 33% active slurries, to a white, acrylic/silicone based outdoor paint free of biocides to give a total active ingredient concentration of 10000 and 1000 ppm respectively. These paints were then diluted with an antimicrobial free acrylic/silicone based paint and mixed to prepare targeted concentrations of antimicrobial compounds for the testing. The total biocides concentrations tested were 125, 250, 500, 1000, 2000 and 5000 ppm. After biocides addition or dilution, the paints were mixed 90 seconds with the horse power shaker (AXEL 75M3372/Agitateur SO-10MI) until uniformity was achieved. Paints containing different antimicrobial compounds at the same levels were mixed together in order to obtain the desired ratio of antimicrobial compounds. After one day, the paints were applied to Schleicher & Schuell filter paper at 280 μm wet film thickness and dried for 3 days at room temperature avoiding direct exposure to sunlight. Square discs (1.6 cm×1.6 cm) were cut out from each panel and were used as the substrate for algal efficacy tests. This sample size allowed for an agar border when the sample disc was placed into the well of the test plate.
(§2) Algal efficacy was tested according to modified ASTM 5589 which is a standard accelerated test method for determining resistance of various coatings (including paints) to algal defacement. To accommodate for high-throughput screening, this method was scaled down from petri dishes to 6-well plates. Bold Modified Basal Freshwater Nutrient Solution was used as growth medium. A single coated filter paper coupon was placed with a pair of sterile forceps at the center of the agar plug (on top) with the painted surface facing upwards. Algal inoculums were prepared by mixing equal concentrations (1×10^6 cfu/ml) and equal volumes of exponentially growing algae cultures.
(§3) Each well that contains a tested coupon was inoculated with 1750 μl of algal suspensions (1×10^6 cfu/ml) making sure that the whole surface (paint film as well as the agar surrounding it) was evenly covered. The plates were incubated at room temp (21° C.-25° C.) with cyclic exposure to light and dark phases, for a period of four weeks.
(§4) At the end of the four week incubation period, the samples were scored for percent inhibition regarding visible algal growth compared to the blank sample (0% inhibition).
(§5) The minimal targeted inhibition was set at 75%, meaning a coupon with at least 75% algal growth inhibition was considered as a pass.

[1] = tested on: Stichococcus bacillaris SAG 379-1a / CCAP 379/1a; assay: as above; assay type: cell-based; settings: for Total conc: total biocide conc in paint chosen as minimum inhibitory concentration (pass level 75% inhibition), or maximum tested where pass not reached
Procedure: as §1, §2, §3, §4, §5

[2] = 672 h, visible algal growth vs blank
[3] = Stichococcus bacillaris, 672 h, Stichococcus, total conc 500 ppm, 4 weeks, visible algal growth vs blank, read-out: % inhibition

| SMILES | inhibition at 1000 ppm (Chlorella sp. ATCC 7516; [2]) | Total conc (Chlorella sp. ATCC 7516) | inhibition at 500 ppm [1, 3] | Total conc ([1]; Stichococcus, 4 weeks) | inhibition at 500 ppm (Chlorella sp. ATCC 7516; 672 h, total conc 500 ppm, visible algal growth vs blank) | inhibition at 500 ppm ([1]; Stichococcus bacillaris, 672 h) | inhibition at 5000 ppm (Chlorella sp. ATCC 7516; 672 h, total conc 5000 ppm, visible algal growth vs blank) | % inhibition (Chlorella sp. ATCC 7516; total conc 5000 ppm, visible algal growth vs blank) | inhibition at 2000 ppm ([1]; Stichococcus bacillaris, 672 h) | inhibition at 5000 ppm ([1]; Stichococcus bacillaris, 672 h) |
| --- | --- | --- | --- | --- | --- | --- | --- | --- | --- | --- |
| Cc1ccc(NC(=O)N(C)C)cc1Cl [Chlorotoluron, chlorotoluron] | 100% | 1000 ppm | 75% | 500 ppm | – | – | – | – | – | – |
| CN(C)C(=O)Nc1ccc(Cl)c(Cl)c1 [Diuron, diuron] | – | 500 ppm | – | 500 ppm | 90% | 95% | – | – | – | – |
| CC(C)c1ccc(NC(=O)N(C)C)cc1 [Isoproturon, isoproturon] | 100% | 1000 ppm | 75% | 500 ppm | – | – | – | – | – | – |
| O=c1[nH]c2c(c(=O)n1C1CCCCC1)CCC2 [Lenacil, 3-cyclohexyl-1,5,6,7-tetrahydrocyclopentapyrimidine-2,4(3H)-dione] | – | 5000 ppm | – | – | – | – | 45% | 50% | 80% | 65% |
